The values that follow come from ChEMBL document CHEMBL1201862, “PubChem BioAssay data set” (2004).

One experiment has as its target Genome polyprotein (dengue virus type 2, UniProt P29990). Put plainly: Dengue-2 NS5 methyltransferase inhibitors, primary screen, biochemical, confirmation dose response (AID 588689). Format: functional.
A short description of experiment [1]: growth suppression of beta-catenin-knockout colon cells, dose response, cell-based, HCT116, human colon tumor (AID 1045).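 Also: HCT116 colon tumor cells with beta catenin knocked out; cells exposed to compound for 60 hours.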 Type of experiment: functional.
Experiment [2] addresses Photoreceptor-specific nuclear receptor (Homo sapiens, UniProt Q9Y5X4). Format: functional, cell-based.
The next experiment concerns HEK293. Put plainly: cells. Type of experiment: functional, cell-based. Conditions: Homo sapiens.
Experiment [3] concerns the target T1, RNA-binding protein pos-1 (Caenorhabditis elegans, UniProt G5EF15).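 Also: purified POS-1 fused to maltose binding protein made in E. coli; potency of compounds blocking POS-1 binding to fluorescent RNA.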
T1 sequence (G5EF15 whole entry): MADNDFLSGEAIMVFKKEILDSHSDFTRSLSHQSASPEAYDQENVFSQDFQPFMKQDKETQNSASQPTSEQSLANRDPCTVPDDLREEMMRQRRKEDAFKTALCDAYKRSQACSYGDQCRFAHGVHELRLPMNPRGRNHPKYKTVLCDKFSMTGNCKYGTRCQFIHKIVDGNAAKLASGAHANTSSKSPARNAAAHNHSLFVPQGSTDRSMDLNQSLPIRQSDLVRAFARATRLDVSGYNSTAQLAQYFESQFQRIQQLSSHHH
Put plainly: inhibitors of POS-1/mex-3 RNA binding, dose response, biochemical, fluorescence polarization (AID 1964). (In fluorescence polarisation assays a small probe gives low polarisation when free and higher when bound to something large.)

Experiment [4] in a line: inhibitors of intracellular T. cruzi replication, confirmation, NIH3T3 host cells, beta-gal luminescence (AID 2044).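 Also: intracellular parasites grown in NIH/3T3 mouse fibroblasts as host cells; luminescent beta-galactosidase reporter signal from transgenic T. cruzi replicating inside host cells; inhibitors lower the luminescence signal.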 Type of experiment: functional, cell-based.
The target in experiment [5] is T2, Microphthalmia-associated transcription factor (Homo sapiens, UniProt O75030).
T2 sequence (O75030 whole entry): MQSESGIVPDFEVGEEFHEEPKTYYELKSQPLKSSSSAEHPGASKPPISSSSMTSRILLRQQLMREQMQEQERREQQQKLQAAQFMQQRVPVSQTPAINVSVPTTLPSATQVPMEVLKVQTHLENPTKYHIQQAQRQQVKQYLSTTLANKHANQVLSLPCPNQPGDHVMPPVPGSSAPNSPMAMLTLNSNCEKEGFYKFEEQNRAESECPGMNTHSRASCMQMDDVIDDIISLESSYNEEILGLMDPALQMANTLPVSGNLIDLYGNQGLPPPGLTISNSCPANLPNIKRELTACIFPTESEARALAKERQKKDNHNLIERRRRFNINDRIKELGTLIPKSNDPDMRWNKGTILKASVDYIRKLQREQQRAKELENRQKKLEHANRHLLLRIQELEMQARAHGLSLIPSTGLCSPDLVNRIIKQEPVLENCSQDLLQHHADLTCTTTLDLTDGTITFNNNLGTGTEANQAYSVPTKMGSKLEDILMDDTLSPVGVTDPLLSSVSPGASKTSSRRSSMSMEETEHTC
Put plainly: TRPM1 promoter luciferase signal decrease, dose response, MITF inhibitor project, cell-based, SK-MEL-5, cherry-picked, set 3 (AID 493073).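 Also: SK-MEL-5 melanoma cells with luciferase driven by the MITF target TRPM1 promoter.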 Type of experiment: functional.

Each structure is given as a SMILES string. Activity calls are given as the source filed them.

The term IC50 denotes the point on the concentration scale where inhibition reaches its midpoint. Usually EC50 stands for the concentration giving half of the maximal effect. Broadly, the AC50 is the concentration at which the activity in the assay is half-maximal.

Photoreceptor-specific nuclear receptor, sequence (Q9Y5X4 whole entry): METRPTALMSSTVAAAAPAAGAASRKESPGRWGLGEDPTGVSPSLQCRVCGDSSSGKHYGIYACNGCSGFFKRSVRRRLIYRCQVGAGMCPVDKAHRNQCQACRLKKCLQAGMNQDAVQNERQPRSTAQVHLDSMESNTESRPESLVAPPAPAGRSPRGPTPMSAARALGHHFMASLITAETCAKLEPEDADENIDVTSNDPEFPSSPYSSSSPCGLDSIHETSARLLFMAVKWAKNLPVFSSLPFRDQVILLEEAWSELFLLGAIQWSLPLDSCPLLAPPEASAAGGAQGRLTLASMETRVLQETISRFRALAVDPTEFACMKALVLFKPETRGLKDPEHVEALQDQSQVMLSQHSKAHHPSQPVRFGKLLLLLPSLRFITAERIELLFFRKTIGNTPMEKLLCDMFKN
Genome polyprotein, sequence (P29990 2492-3391 limits assumed): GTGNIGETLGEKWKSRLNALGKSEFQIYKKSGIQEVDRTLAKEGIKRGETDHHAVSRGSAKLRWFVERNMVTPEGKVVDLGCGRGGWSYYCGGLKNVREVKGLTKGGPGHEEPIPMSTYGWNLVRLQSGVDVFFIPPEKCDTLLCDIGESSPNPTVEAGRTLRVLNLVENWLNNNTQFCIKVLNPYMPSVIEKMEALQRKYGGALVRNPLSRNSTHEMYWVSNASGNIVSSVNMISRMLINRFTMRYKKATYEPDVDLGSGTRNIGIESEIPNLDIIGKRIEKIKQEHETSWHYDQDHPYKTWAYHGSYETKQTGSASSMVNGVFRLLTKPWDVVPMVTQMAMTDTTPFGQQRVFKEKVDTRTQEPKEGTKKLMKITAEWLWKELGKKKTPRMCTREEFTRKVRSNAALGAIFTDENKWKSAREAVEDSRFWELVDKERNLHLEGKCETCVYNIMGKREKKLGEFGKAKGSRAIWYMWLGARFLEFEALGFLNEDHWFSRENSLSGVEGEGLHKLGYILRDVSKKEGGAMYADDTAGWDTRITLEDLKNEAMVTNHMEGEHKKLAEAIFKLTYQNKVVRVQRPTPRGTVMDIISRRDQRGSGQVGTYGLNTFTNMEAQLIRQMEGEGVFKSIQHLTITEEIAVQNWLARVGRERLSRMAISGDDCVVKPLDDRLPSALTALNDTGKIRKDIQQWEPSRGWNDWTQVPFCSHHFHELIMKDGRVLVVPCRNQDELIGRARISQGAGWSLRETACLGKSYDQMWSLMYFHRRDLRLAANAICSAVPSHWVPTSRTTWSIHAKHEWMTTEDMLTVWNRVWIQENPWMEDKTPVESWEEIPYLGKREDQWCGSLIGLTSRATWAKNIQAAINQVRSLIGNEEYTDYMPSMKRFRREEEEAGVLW

As to `CC(C)c1ccc(S(=O)(=O)/N=C2\C=C(NS(=O)(=O)c3ccccc3)C(=O)c3ccccc32)cc1`, on Genome polyprotein, the IC50 was 25.7 µM (active).

On to `COc1ccc(CNC(=O)c2c(C)oc3c2C(=O)c2ccccc2C3=O)cc1`, for which the EC50 in experiment [1] is 13.9 µM (active). In addition, the IC50 in experiment [2] was 1.21 µM (active).

For `CCSc1nsc(NC(=O)Nc2cccc(F)c2)n1`, the IC50 in the experiment with HEK293 is 3.7 µM (active).

On to `O=[N+]([O-])c1ccc(/C=N/n2cnc3ccccc32)s1`, for which the EC50 in experiment [3] is > 300 µM (inconclusive); in experiment [4], 0.257 µM (active). Besides, the AC50 in experiment [5] is 6.25 µM (active).
